In US20060069132A1, “Azolecarboxamide herbicides” (priority 2004, published 2006):

Experiments:
barnyardgrass [1] = assay: Test B pre-/postemergence herbicide test; type: in vivo, Echinochloa crus-galli; details: for Plant response rating, Barnyardgrass: preemergence; for Barnyardgrass plant response rating: postemergence, visual rating, scale 0 (no effect) to 100 (complete control)
Summary of the method: (§1)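 Test chemicals in a non-phytotoxic solvent mixture with surfactant were applied preemergence to seeded species and postemergence to plants 2-18 cm tall (1- to 4-leaf stage); rice and barnyardgrass were also tested in a flooded paddy at the 2-leaf stage. Visual rating versus controls after 13-15 days in greenhouse, scale 0 (no effect) to 100 (complete control).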

Surinam grass = assay: Test B pre-/postemergence herbicide test; type: in vivo, Urochloa decumbens; details: for Plant response rating, Surinam Grass: preemergence; for Surinam Grass plant response rating: postemergence, visual rating, scale 0 (no effect) to 100 (complete control)
Summary of the method: (§2)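 Greenhouse pot assay with simultaneous preemergence (treated seed) and postemergence (2–18 cm seedlings) applications of surfactant-containing, non-phytotoxic solvent formulations. Response scored visually 13–15 days later on a 0–100 scale, 100 meaning complete control.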

cocklebur = assay: Test B pre-/postemergence herbicide test; type: in vivo, Xanthium strumarium; details: for Plant response rating, Cocklebur: preemergence; for Cocklebur plant response rating: postemergence, visual rating, scale 0 (no effect) to 100 (complete control)
Summary of the method: as §1

corn = assay: Test B pre-/postemergence herbicide test; type: in vivo, Zea mays; details: for Plant response rating, Corn: preemergence; for Corn plant response rating: postemergence, visual rating, scale 0 (no effect) to 100 (complete control)
Summary of the method: as §2

large crabgrass = assay: Test B pre-/postemergence herbicide test; type: in vivo, Digitaria sanguinalis; details: for Plant response rating, Crabgrass, Large: preemergence; for Crabgrass, Large plant response rating: postemergence, visual rating, scale 0 (no effect) to 100 (complete control)
Summary of the method: as §2

giant foxtail = assay: Test B pre-/postemergence herbicide test; type: in vivo, Setaria faberi; details: for Plant response rating, Foxtail, Giant: preemergence; for Foxtail, Giant plant response rating: postemergence, visual rating, scale 0 (no effect) to 100 (complete control)
Summary of the method: as §2

lambsquarters = assay: Test B pre-/postemergence herbicide test; type: in vivo, Chenopodium album; details: for Plant response rating, Lambsquarters: preemergence; for Lambsquarters plant response rating: postemergence, visual rating, scale 0 (no effect) to 100 (complete control)
Summary of the method: as §2

morningglory = assay: Test B pre-/postemergence herbicide test; type: in vivo, Ipomoea coccinea; details: for Plant response rating, Morningglory: preemergence; for Morningglory plant response rating: postemergence, visual rating, scale 0 (no effect) to 100 (complete control)
Summary of the method: as §1

pigweed = assay: Test B pre-/postemergence herbicide test; type: in vivo, Amaranthus retroflexus; details: for Plant response rating, Pigweed: preemergence; for Pigweed plant response rating: postemergence, visual rating, scale 0 (no effect) to 100 (complete control)
Summary of the method: as §2

rice [2] = assay: Test B pre-/postemergence herbicide test; type: in vivo, Oryza sativa; details: preemergence
Summary of the method: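 Species tested were Echinochloa crus-galli, Ipomoea coccinea, Xanthium strumarium and Oryza sativa, treated both before emergence and at the 1- to 4-leaf stage; rice and barnyardgrass were also tested under flooding at 2 leaves. Greenhouse incubation lasted 13–15 days before visual 0–100 scoring.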

velvetleaf = assay: Test B pre-/postemergence herbicide test; type: in vivo, Abutilon theophrasti; details: for Plant response rating, Velvetleaf: preemergence; for Velvetleaf plant response rating: postemergence, visual rating, scale 0 (no effect) to 100 (complete control)
Summary of the method: as §2

blackgrass = assay: Test B postemergence herbicide test; type: in vivo, Alopecurus myosuroides; details: postemergence, visual rating, scale 0 (no effect) to 100 (complete control)
Summary of the method: (§3)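 Paddy species grown to the 2-leaf stage under flooding; blackgrass sprayed postemergence at 2–18 cm (1- to 4-leaf stage). Plants kept in a greenhouse for 13 to 15 days, then visually rated against controls on 0 (no effect) to 100 (complete control).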

wheat = assay: Test B postemergence herbicide test; type: in vivo, Triticum aestivum; parameters: key to Wheat plant response rating: 0 = no effect, 100 = complete control; details: postemergence, 500 g ai/ha; visual rating, scale 0 (no effect) to 100 (complete control)
Summary of the method: (§4)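 Read-out: visual comparison with controls, scored 0 to 100, where 100 means complete control and 0 no effect. Formulated chemicals were applied postemergence to plants 2–18 cm tall (1- to 4-leaf), or to flooded-paddy plants at the 2-leaf stage, then held 13 to 15 days under glass.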

wild oat = assay: Test B postemergence herbicide test; type: in vivo, Avena fatua; details: postemergence, visual rating, scale 0 (no effect) to 100 (complete control)
Summary of the method: as §4

rice [3] = assay: Test B flooded paddy test; type: in vivo, Oryza sativa; details: 1000 g ai/ha, visual rating, scale 0 to 100 (0 no effect, 100 complete control), 13 to 15 days
Summary of the method: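 Greenhouse test; postemergence application to plants at 1–4 leaves (2–18 cm); paddy species at 2 leaves; evaluated visually vs controls at 13–15 days; scale 0–100 (100 = complete control).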

[4] = system: small flower umbrella sedge; assay: Test B flooded paddy test; type: in vivo, Cyperus difformis; details: 1000 g ai/ha, visual rating, scale 0 to 100 (0 no effect, 100 complete control), 13 to 15 days
Summary of the method: as §3

ducksalad [5] = assay: Test B flooded paddy test; type: in vivo, Heteranthera limosa; details: 1000 g ai/ha, visual rating, scale 0 to 100 (0 no effect, 100 complete control), 13 to 15 days
Summary of the method: as §3

barnyardgrass [6] = assay: Test B flooded paddy test; type: in vivo, Echinochloa crus-galli; details: 1000 g ai/ha, visual rating, scale 0 to 100 (0 no effect, 100 complete control), 13 to 15 days
Summary of the method: as §3

rice [7] = assay: Test C flooded paddy test; type: in vivo, Oryza sativa
Summary of the method: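 Postemergence sprays applied to plants 2 to 18 cm tall (1- to 4-leaf stage); paddy species grown to 2-leaf stage under flooding. After 12 to 14 days in greenhouse, visual rating versus untreated controls on 0–100 scale (0 no effect, 100 complete control).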

[8] = system: smallflower umbrella sedge; assay: Test C flooded paddy test; type: in vivo, Cyperus difformis
ducksalad [9] = assay: Test C flooded paddy test; type: in vivo, Heteranthera limosa
barnyardgrass [10] = assay: Test C flooded paddy test; type: in vivo, Echinochloa crus-galli
Summary of the method: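 Postemergence sprays were applied to plants 2 to 18 cm tall (1- to 4-leaf stage); in the flooded paddy test, barnyardgrass was grown to the 2-leaf stage. After 12 to 14 days in a greenhouse, injury was visually rated against untreated controls on a 0–100 scale (100 = complete control).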

[11] = 500 g ai/ha, visual rating 0-100, 0 no effect, 100 complete control
[12] = 125 g ai/ha, 0 to 100 scale, 0 is no effect, 100 is complete control
[13] = 62 g ai/ha, scale 0 to 100 (0 no effect, 100 complete control)
[14] = 125 g ai/ha, scale 0 to 100 (0 no effect, 100 complete control)
[15] = 250 g ai/ha, scale of 0 to 100, 0 is no effect, 100 is complete control
[16] = 500 g ai/ha, visual rating after 12 to 14 days, scale 0 to 100 (0 no effect, 100 complete control)

CCOC(=O)c1cc(N(C(C)=O)C(=O)c2cc(C(C)(C)C)nn2CC)ccc1C [Compound 141]
20: Surinam Grass plant response rating (Surinam grass; 500 g ai/ha) | Cocklebur plant response rating (cocklebur; 500 g ai/ha) | Plant response rating, Crabgrass, Large (large crabgrass; [11]) | Plant response rating, Foxtail, Giant (giant foxtail; [11]) | Foxtail, Giant plant response rating (giant foxtail; 125 g ai/ha) | Foxtail, Giant plant response rating (giant foxtail; 500 g ai/ha) | Morningglory plant response rating (morningglory; 125 g ai/ha) | Plant response rating, Morningglory (morningglory; [12]) | Plant response rating, Velvetleaf (velvetleaf; [11]) | Velvetleaf plant response rating (velvetleaf; 125 g ai/ha) | Blackgrass plant response rating (blackgrass; 125 g ai/ha) | Blackgrass plant response rating (blackgrass; 500 g ai/ha) | Wheat plant response rating (wheat) | Oat, Wild plant response rating (wild oat; 500 g ai/ha)
60: Lambsquarters plant response rating (lambsquarters; 125 g ai/ha)
45: Plant response rating, Sedge, Umbrella [8, 16]
0: Plant response rating, Barnyardgrass (barnyardgrass [1]; [11]) | Barnyardgrass plant response rating (barnyardgrass [1]; 125 g ai/ha) | Plant response rating, Barnyardgrass (barnyardgrass [1]; [12]) | Plant response rating, Surinam Grass (Surinam grass; [12]) | Cocklebur plant response rating (cocklebur; 125 g ai/ha) | Plant response rating, Cocklebur (cocklebur; [12]) | Plant response rating, Corn (corn; [11]) | Corn plant response rating (corn; 125 g ai/ha) | Plant response rating, Corn (corn; [12]) | Plant response rating, Lambsquarters (lambsquarters; [11]) | Plant response rating, Lambsquarters (lambsquarters; [12]) | Plant response rating, Pigweed (pigweed; [12]) | Plant response rating, Rice (rice [2]; [11]) | Plant response rating, Rice (rice [2]; [12]) | Plant response rating, Velvetleaf (velvetleaf; [12]) | Rice plant response rating (rice [3]) | Rice plant response rating (rice [7]; [13]) | Rice plant response rating (rice [7]; [14]) | Rice plant response rating (rice [7]; [15]) | Plant response rating, Rice (rice [7]; [16]) | Sedge, Umbrella plant response rating [8, 13] | Sedge, Umbrella plant response rating [8, 14] | Ducksalad plant response rating (ducksalad [9]; [13]) | Ducksalad plant response rating (ducksalad [9]; [14]) | Ducksalad plant response rating (ducksalad [9]; [15]) | Plant response rating, Ducksalad (ducksalad [9]; [16]) | Barnyardgrass plant response rating (barnyardgrass [10]; [13]) | Barnyardgrass plant response rating (barnyardgrass [10]; 125 g ai/ha, scale of 0 to 100, 0 is no effect, 100 is complete control) | Barnyardgrass plant response rating (barnyardgrass [10]; [15])
80: Pigweed plant response rating (pigweed; 500 g ai/ha) | Velvetleaf plant response rating (velvetleaf; 500 g ai/ha) | Ducksalad plant response rating (ducksalad [5])
30: Crabgrass, Large plant response rating (large crabgrass; 500 g ai/ha) | Plant response rating, Morningglory (morningglory; [11]) | Morningglory plant response rating (morningglory; 500 g ai/ha) | Plant response rating, Pigweed (pigweed; [11]) | Pigweed plant response rating (pigweed; 125 g ai/ha) | Sedge, Umbrella plant response rating [8, 15]
10: Barnyardgrass plant response rating (barnyardgrass [1]; 500 g ai/ha) | Plant response rating, Surinam Grass (Surinam grass; [11]) | Surinam Grass plant response rating (Surinam grass; 125 g ai/ha) | Plant response rating, Cocklebur (cocklebur; [11]) | Corn plant response rating (corn; 500 g ai/ha) | Crabgrass, Large plant response rating (large crabgrass; 125 g ai/ha) | Plant response rating, Crabgrass, Large (large crabgrass; [12]) | Plant response rating, Foxtail, Giant (giant foxtail; [12]) | Oat, Wild plant response rating (wild oat; 125 g ai/ha) | Barnyardgrass plant response rating (barnyardgrass [6]) | Plant response rating, Barnyardgrass (barnyardgrass [10]; [16])
90: Lambsquarters plant response rating (lambsquarters; 500 g ai/ha) | Sedge, Umbrella plant response rating [4]
